# Assay results from patent publication US20130039956A1, “USE OF NITROCARBOXYLIC ACIDS FOR THE TREATMENT, DIAGNOSIS AND PROPHYLAXIS OF AGGRESSIVE HEALING PATTERNS” (priority 2010, published 2013).
# Columns and labels:
# TRPV-1 = biological target: T1, TRPV-1 (Mus musculus, UniProt Q704Y3); assay: Signal transduction of receptors of the TRP-protein family in retinal slices; assay type: cell-based, mice; conditions: preincubation (5 minutes) of TRPV-1 antagonist, saline specimens
# T1 construct: Whole retinas were isolated and cut into 100 μm slices using a tissue slicer; from tissue; host or cells: mouse retinal slices (100 μm)
# T1 sequence (Q704Y3 whole entry): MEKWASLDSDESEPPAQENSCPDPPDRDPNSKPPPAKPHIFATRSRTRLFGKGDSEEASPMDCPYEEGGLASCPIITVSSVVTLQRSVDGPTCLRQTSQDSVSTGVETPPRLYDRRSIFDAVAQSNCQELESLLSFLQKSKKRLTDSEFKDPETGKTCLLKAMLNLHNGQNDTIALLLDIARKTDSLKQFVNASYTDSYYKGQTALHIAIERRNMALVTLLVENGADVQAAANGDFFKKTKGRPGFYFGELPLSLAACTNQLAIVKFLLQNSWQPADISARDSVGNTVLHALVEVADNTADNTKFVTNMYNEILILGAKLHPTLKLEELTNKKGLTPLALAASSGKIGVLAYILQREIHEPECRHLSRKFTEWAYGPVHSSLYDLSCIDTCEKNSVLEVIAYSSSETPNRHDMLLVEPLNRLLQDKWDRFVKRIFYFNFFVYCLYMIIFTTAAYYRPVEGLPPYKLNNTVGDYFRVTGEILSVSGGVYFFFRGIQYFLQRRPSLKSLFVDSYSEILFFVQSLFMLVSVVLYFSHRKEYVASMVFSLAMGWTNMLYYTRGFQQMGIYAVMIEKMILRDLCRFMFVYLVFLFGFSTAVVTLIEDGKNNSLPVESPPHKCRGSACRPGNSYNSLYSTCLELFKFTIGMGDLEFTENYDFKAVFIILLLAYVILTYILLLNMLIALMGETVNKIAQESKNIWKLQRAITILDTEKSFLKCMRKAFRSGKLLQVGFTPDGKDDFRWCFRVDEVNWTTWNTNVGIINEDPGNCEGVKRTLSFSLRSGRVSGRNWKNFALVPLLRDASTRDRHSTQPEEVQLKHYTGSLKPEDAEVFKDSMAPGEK
# Protocol: In order to determine the effect of nitrated fatty acids on receptor signal transduction, an in vitro model was used. Retinal slices from cadaver mice were prepared as described by Snellman and Nawy (Snellman J. Nawy S (2004). cGMP-dependent kinase regulates response sensitivity of the mouse on bipolar cell. J Neurosci 24:6621-6628). Whole retinas were isolated and cut into 100 μm slices using a tissue slicer and than transferred to the recording chamber. The chamber was continuously perfused with Ames media and oxygenated. Picrotoxin (100 μM), strychnine (10 μM), and TPMPA (50 μM) were added. Each nitro fatty acid was added in two experiments to achieve a final concentration of 10 μmol, and in another two experiments to achieve a final concentration of 50 μmol. In two experiments, the corresponding native fatty acid was added to achieve a final concentration of 10 and 50 μmol, and in two experiments saline solution was added which served as controls. Currents were measured via tissue electrodes and monitored throughout the investigation. After incubating the solution for 2 hours, the TRPV-1 agonist capsaicin was added to achieve a final concentration of 10 μmol. Experiments were performed using either 10 mmol Hepes or 10 mmol Mes adjusting the pH of the solution to 6.4 or 4.4, respectively. Furthermore, experiments were performed without or with preincubation (5 minutes) of the TRPV-1 antagonist capsazepine. The solution temperature was held constant at 35° C.
# pericardial strips = assay: Cold induced injury in a whole tissue ex-vivo model (pericardium); assay type: cell-based, Wistar rats; conditions: control sample incubated with all-caspase inhibitor before cold
# Source text: To determine whether nitrated fatty acids can be used to preserve cells and tissues from cold or cryoinjury, an in vitro model utilizing murine epicardium was established. The experimental set-up should reduce the possibility of ischemia or reperfusion injury to a minimum, but at the same time allow differentiation of the contribution of ischemia/reperfusion injury-triggered cell death, which is known to occur almost exclusively via apoptosis, whereas cell death induced by cold injury almost exclusively results in necrosis.
# The pericardial sac was carefully resected in 24 anesthetized Wistar rats (180-270 g) of either sex. Care was taken to grasp the pericardium with a forceps only at the cutting edges and reduce traumatization of the central portions of the pericardium to a minimum. After resection, the cutting edge and the former apex area of the pericardium were dissected, as to obtain flat tissue strips which were placed immediately in the culture medium (DMEM) containing 10% FCS and antibiotics (penicillin, streptomycin). Tissue samples were cultured in an oxygen atmosphere at 18° C. for 2 days. […] Then the pericardial strips were cut into 4 pieces of equal size. One piece was further cultivated at 37° C. without undergoing the cooling cycles, thus, serving as the control. In each of three investigations, one piece was bathed in a solution (0.9% saline and 1% SDS) containing 200 μmol nitro-fatty acid or contained 200 μmol of the corresponding native fatty acid, for 10 min at a temperature of 18° C. One piece of pericardium was bathed in a solution without fatty acids under otherwise identical conditions. All samples were cooled by continuously decreasing from ambient temperature at a rate of 3° C./min to a minimum temperature of […]. After 1 hour, the samples were rewarmed at a rate of 3° C./min by continuously increasing the temperature until a temperature of 18° C., was achieved. Thereafter an identical cooling and rewarming cycle was performed. After the second cooling cycle, the tissue pieces were further cultured in the culture medium for 1 day allowing continuous adaptation to an ambient temperature of 37° C. For analytical preparations the pericardial pieces were out and further processed. A direct TUNEL assay (Roche) was use for quantification of apoptosis, an annexin V/propidium iodide exclusion assay (Roche) was used to quantify the number of necrotic cells, and viability was determined by the WST-8 assay. Furthermore, the LDH release was quantified in the supernatants.
# To rule out that cell death has been induced by ischemia or reperfusion (reoxygenation), in one series of experiments, a control sample was incubated with an all-caspase inhibitor (Q-VD-OPH, BioVision, USA) reconstituted in DMSO before the sample was exposed to cold.
SMILES,capsaicin effect (induced current) (TRPV-1),rate of cells undergoing apoptosis (pericardial strips)
"Oc1cc2c(cc1O)CN(C(=S)NCCc1ccc(Cl)cc1)CCC2 [capsazepine, reference compound]",inhibited,
"CC(C)[C@H](NC(=O)c1ccc2ccccc2n1)C(=O)N[C@@H](CC(=O)O)C(=O)COc1c(F)cccc1F [Q-VD-OPH, reference compound]",,within the range found in the cold-exposed control samples
